Test results taken from patent publication US20100298300A1, “TRIAZOLOPYRAZINE COMPOUNDS USEFUL FOR THE TREATMENT OF DEGENERATIVE & INFLAMMATORY DISEASES” (priority 2006, published 2010).

Experiments:
[1] = tested on: MMP1 expression by activated primary synovial fibroblasts; assay: 'MMP assay': MMP1 expression by complex trigger activated synovial fibroblasts (MMP1 ELISA); type: cell-based; settings: Homo sapiens, Fibroblast; for EC50: RASFs, complex trigger, 48 hrs, MMP1 ELISA
MAPKAPK5 = molecular target: T1, MAPKAPK5 (Homo sapiens, UniProt Q8IW41); assay: MAPKAP-K5 assay (FlashPlate kinase assay)
T1 sequence (Q8IW41 1-471 isoform Q8IW41-2): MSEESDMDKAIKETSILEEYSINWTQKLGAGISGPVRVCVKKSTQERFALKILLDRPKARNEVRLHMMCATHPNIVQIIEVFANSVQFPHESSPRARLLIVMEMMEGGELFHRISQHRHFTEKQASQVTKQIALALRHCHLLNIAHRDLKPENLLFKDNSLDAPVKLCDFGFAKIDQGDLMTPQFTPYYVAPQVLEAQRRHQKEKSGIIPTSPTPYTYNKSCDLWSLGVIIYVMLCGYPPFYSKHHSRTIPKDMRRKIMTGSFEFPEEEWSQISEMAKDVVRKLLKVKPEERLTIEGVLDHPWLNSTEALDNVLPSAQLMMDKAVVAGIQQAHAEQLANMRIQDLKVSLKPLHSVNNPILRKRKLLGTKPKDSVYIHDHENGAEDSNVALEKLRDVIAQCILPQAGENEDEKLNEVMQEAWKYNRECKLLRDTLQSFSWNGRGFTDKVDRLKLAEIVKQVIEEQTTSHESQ
Experimental: MAPKAP-K5 reactions are performed in FlashPlate format using 0.1 or 0.2 μCi 33P-ATP; 0.6 μM ATP; 1 mU MAPKAP-K5; 3 μM MAPKAP-K5 peptide substrate, incubated at room temperature for 30 minutes.
The MAPKAP-K5 kinase reaction is performed in a 384 well polypropylene plate (Matrix Technologies) and then transferred to a streptavidin-coated 384 well flashplate (Perkin-Elmer).
To wells containing 2 μL test compound or standard inhibitor, 13 μL Enzyme mix or diluent are added using a Hydra (Robbins Scientific).
Reactions are started by addition of 10 μL of [2,5×] substrate cocktail using a Multidrop (Thermo-Labsystems), to give final concentrations in the assay of:
Plates are incubated at room temperature for 30 minutes.
Reactions are terminated by the addition of 25 μL EDTA (50 mM) to each well using a Micro-fill (Biotek).
Reactions are transferred to a streptavidin-coated flashplate using a Zymark robotic system. Plates are incubated for 60 minutes at room temperature.
All wells are washed 3 times with 100 μl phosphate buffered saline using a Tecan plate washer.
Radioactivity is determined by scintillation counting of the flashplate (empty wells) on a Packard TopCount.
Enzyme Mix: • Enzyme • 50 mM Tris Hcl (pH 7.5) • 0.1 mM EGTA • 2 mM DTT • 1 mg/mL BSA
Reaction Buffer: • 50 mM Tris Hcl (pH 7.5) • 0.1 mM EGTA • 10 mM Magnesium acetate • 2 mM DTT

Row | SMILES | EC50 ([1]; Table 3) [nM] | IC50 (MAPKAPK5) [nM] | EC50 ([1]; Table 4) [nM] | IC50 ([1]; complex trigger activated SFs, 48 hrs after treatment, FIG. 3, read-out: IC50 of reduction of MMP1 expression by SFs) [nM]
1 | CC(C)N1CCN(c2ccc(Nc3ncc(-c4cn[nH]c4)n4ncnc34)cn2)CC1 [Compound 43, [6-(4-Isopropylpiperazin-1-yl)pyridin-3-yl]-[5-(1H-pyrazol-4-yl)-[1,2,4]triazolo[1,5-a]pyrazin-8-yl]amine] | > 1000 | > 1000 |  | 
2 | CC(C)N1CCN(c2ccc(Nc3ncc(-c4csc(C(N)=O)c4)n4ncnc34)cn2)CC1 [Compound 55, 4-{8-[6-(4-Isopropylpiperazin-1-yl)pyridin-3-ylamino]-[1,2,4]triazolo[1,5-a]pyrazin-5-yl}thiophene-2-carboxylic acid amide] | 101 to 500 | 101 to 500 |  | 
3 | NC(=O)c1cccc2c(-c3cnc(Nc4ccc(N5CCOCC5)cc4)c4ncnn34)csc12 [Compound 80, 3-[8-(4-Morpholin-4-ylphenylamino)-[1,2,4]triazolo[1,5-a]pyrazin-5-yl]-benzo[b]thiophene-7-carboxylic acid amide] | 101 to 500 | > 1000 |  | 
4 | OCc1cc(-c2cnc(Nc3ccc(N4CCOCC4)cc3)c3ncnn23)ccn1 [Compound 82] | > 1000 | > 1000 |  | 
5 | CC(C)N1CCN(c2ccc(Nc3ncc(-c4ccnc(CO)c4)n4ncnc34)cc2)CC1 [Compound 83, (4-{8-[4-(4-Isopropylpiperazin-1-yl)-phenylamino]-[1,2,4]triazolo[1,5-a]pyrazin-5-yl}pyridin-2-yl)methanol] | > 1000 | > 1000 |  | 
6 | CC(C)N1CCN(c2ccc(Nc3ncc(-c4coc(C(N)=O)c4)n4ncnc34)cc2)CC1 [Compound 88, 4-(8-(4-(4-Isopropylpiperazin-1-yl)phenylamino)-[1,2,4]triazolo[1,5-a]pyrazin-5-yl)furan-2-carboxamide] | 501 to 1000 | 1 to 100 |  | 
7 | c1nc2c(Nc3ccc(N4CCOCC4)cc3)ncc(-c3ccc4cn[nH]c4c3)n2n1 [Compound 93] | > 1000 | > 1000 |  | 
8 | Cc1sc(C(N)=O)cc1-c1cnc(Nc2ccc(N3CCN(C(C)C)CC3)cc2)c2ncnn12 [Compound 95] | > 1000 | > 1000 |  | 
9 | Cc1sc(C(N)=O)cc1-c1cnc(Nc2ccc(N3CCN(C(C)C)CC3)nc2)c2ncnn12 [Compound 96] | > 1000 | > 1000 |  | 
10 | CC(C)N1CCN(c2ccc(Nc3ncc(-c4cccc5c4CNC5=O)n4ncnc34)cc2)CC1 [Compound 97] | > 1000 | > 1000 |  | 
11 | CC(C)N1CCN(c2ccc(Nc3ncc(-c4cccc5c4CNC5=O)n4ncnc34)cn2)CC1 [Compound 98] | > 1000 | > 1000 |  | 
12 | O=C1CNCCN1c1ccc(Nc2ncc(-c3cn[nH]c3)n3ncnc23)cc1 [Compound 100, 1-(4-(5-(1H-Pyrazol-4-yl)-[1,2,4]triazolo[1,5-a]pyrazin-8-ylamino)phenyl)piperazin-2-one] | > 1000 | > 1000 |  | 
13 | CC(C)N1CCN(c2ccc(Nc3ncc(-c4ccc5cn[nH]c5c4)n4ncnc34)cc2)CC1 [Compound 106] |  | > 1000 |  | 
14 | CC(C)N1CCN(c2ccc(Nc3ncc(-c4ccc5c(c4)C(=O)NC5)n4ncnc34)cc2)CC1 [Compound 109] | > 1000 | > 1000 |  | 
15 | O=C1NCc2oc(-c3cnc(Nc4ccc(N5CCOCC5)cc4)c4ncnn34)cc21 [Compound 111] | > 1000 | 101 to 500 |  | 
16 | CC(C)N1CCN(c2ccc(Nc3ncc(-c4ccc5c(c4)CNC5=O)n4ncnc34)cc2)C(=O)C1 [Compound 112, 5-(8-(4-(4-Isopropyl-2-oxopiperazin-1-yl)phenylamino)-[1,2,4]triazolo[1,5-a]pyrazin-5-yl)isoindolin-1-one] | > 1000 | 101 to 500 |  | 
17 | CC(C)N1CCN(c2ccc(Nc3ncc(-c4ccc5c(c4)C(C)(C)NC5=O)n4ncnc34)cc2)CC1 [Compound 114, 5-{8-[4-(4-Isopropylpiperazin-1-yl)-phenylamino]-[1,2,4]triazolo[1,5-a]pyrazin-5-yl}-3,3-dimethyl-2,3-dihydroisoindol-1-one] | > 1000 | > 1000 |  | 
18 | O=C(NCc1cccnc1)c1ccc(Nc2ncc(-c3cn[nH]c3)n3ncnc23)cc1 [Compound 118, 4-(5-(1H-Pyrazol-4-yl)-[1,2,4]triazolo[1,5-a]pyrazin-8-ylamino)-N-(pyridin-3-ylmethyl)benzamide] |  | > 1000 | > 1000 | 
19 | O=C(NCc1cccnc1)c1ccc(Nc2ncc(-c3cc[nH]c(=O)c3)n3ncnc23)cc1 [Compound 119, 4-(5-(2-Oxo-1,2-dihydropyridin-4-yl)-[1,2,4]triazolo[1,5-a]pyrazin-8-ylamino)-N-(pyridin-3-ylmethyl)benzamide] |  | > 1000 | > 1000 | 
20 | COc1cc(Nc2ncc(-c3cn[nH]c3)n3ncnc23)ccc1C(=O)NCc1ccc(C)nc1 [Compound 120, 2-Methoxy-N-(6-methylpyridin-3-yl)methyl-4-[5-(1H-pyrazol-4-yl)-[1,2,4]triazolo[1,5-a]pyrazin-8-ylamino]-benzamide] |  | > 1000 | > 1000 | 
21 | COc1cc(Nc2ncc(-c3csc(C(N)=O)c3)n3ncnc23)ccc1C(=O)NCc1ccc(C)nc1 [Compound 121] |  | > 1000 | > 1000 | 
22 | COc1cc(Nc2ncc(-c3cn[nH]c3)n3ncnc23)ccc1C(=O)NCc1ccccc1 [Compound 122, N-Benzyl-2-methoxy-4-[5-(1H-pyrazol-4-yl)-[1,2,4]triazolo[1,5-a]pyrazin-8-ylamino]-benzamide] |  | > 1000 | > 1000 | 

Row | SMILES | EC50 ([1]; Table 3) [nM] | IC50 (MAPKAPK5) [nM] | EC50 ([1]; Table 4) [nM] | IC50 ([1]; complex trigger activated SFs, 48 hrs after treatment, FIG. 3, read-out: IC50 of reduction of MMP1 expression by SFs) [nM]
23 | O=C(NCc1ccccc1)c1cccc(Nc2ncc(-c3cn[nH]c3)n3ncnc23)c1 [Compound 123] |  | > 1000 | > 1000 | 
24 | O=C(NCc1ccccn1)c1cccc(Nc2ncc(-c3cn[nH]c3)n3ncnc23)c1 [Compound 124, N-Pyridin-2-ylmethyl 3-[5-(1H-pyrazol-4-yl)-[1,2,4]triazolo[1,5-a]pyrazin-8-ylamino]benzamide] |  | > 1000 | > 1000 | 
25 | CCN(CC)C(=O)c1cccc(Nc2ncc(-c3cn[nH]c3)n3ncnc23)c1 [Compound 125] |  | > 1000 | > 1000 | 
26 | O=C(c1cccc(Nc2ncc(-c3cn[nH]c3)n3ncnc23)c1)N1CCCC1 [Compound 126] |  | > 1000 | > 1000 | 
27 | CC(C)N1CCN(C(=O)c2cccc(Nc3ncc(-c4cn[nH]c4)n4ncnc34)c2)CC1 [Compound 127, (4-Isopropylpiperazin-1-yl)-{3-[5-(1H-pyrazol-4-yl)-[1,2,4]triazolo[1,5-a]pyrazin-8-ylamino]phenyl}methanone] |  | 501 to 1000 | > 1000 | 
28 | NC(=O)c1cccc(Nc2ncc(-c3cn[nH]c3)n3ncnc23)c1 [Compound 128] |  | > 1000 | > 1000 | 
29 | CCNC(=O)c1cccc(Nc2ncc(-c3cn[nH]c3)n3ncnc23)c1 [Compound 129, N-Ethyl 3-[5-(1H-pyrazol-4-yl)-[1,2,4]triazolo[1,5-a]pyrazin-8-ylamino]benzamide] |  | > 1000 | > 1000 | 
30 | O=C(NCC1CCCCC1)c1cccc(Nc2ncc(-c3cn[nH]c3)n3ncnc23)c1 [Compound 130] |  | > 1000 | > 1000 | 
31 | O=C(NCc1ccc(O)cc1)c1cccc(Nc2ncc(-c3cn[nH]c3)n3ncnc23)c1 [Compound 131, N-(4-Hydroxybenzyl) 3-[5-(1H-pyrazol-4-yl)-[1,2,4]triazolo[1,5-a]pyrazin-8-ylamino]benzamide] |  | > 1000 | 501 to 1000 | 
32 | COc1cc(Nc2ncc(-c3csc(C(N)=O)c3)n3ncnc23)ccc1C(=O)NCc1ccccc1 [Compound 132] |  | > 1000 | > 1000 | 
33 | NC(=O)c1cc(-c2cnc(Nc3ccc(NC(=O)c4ccccc4)nc3)c3ncnn23)cs1 [Compound 133] |  | > 1000 | > 1000 | 
34 | O=C(Nc1ccc(Nc2ncc(-c3cn[nH]c3)n3ncnc23)cn1)c1ccccc1 [Compound 135] |  | > 1000 |  | 
35 | O=C(c1ccc(Nc2ncc(-c3cn[nH]c3)n3ncnc23)cc1)N1CCN(Cc2ccc(F)cc2)CC1 [Compound 144] |  | 501 to 1000 |  | 
36 | CCN1CCC[C@H]1CNC(=O)c1ccc(Nc2ncc(-c3cn[nH]c3)n3ncnc23)cc1 [Compound 163] |  |  | > 1000 | 
37 | CN(C)Cc1cc(Nc2ncc(-c3ccc4c(c3)CNC4=O)n3ncnc23)ccc1N1CCOCC1 [Compound 175] | > 1000 |  |  | 
38 | CC(C)N1CCC(Nc2ncc(-c3ccc4c(c3)CNC4=O)n3ncnc23)CC1 [Compound 186] |  | > 1000 |  | 
39 | CC(C)N1CCCN(c2ccc(Nc3ncc(-c4cn[nH]c4)n4ncnc34)cc2)CC1 [Compound 187] |  | > 1000 |  | 
40 | CC(C)N1CCCN(c2ccc(Nc3ncc(-c4ccc5c(c4)CNC5=O)n4ncnc34)cc2)CC1 [Compound 188] |  | 1 to 100 |  | 
41 | COCCN1CCC(c2ccc(Nc3ncc(-c4ccc5c(c4)CNC5=O)n4ncnc34)cc2)CC1 [Compound 189] |  | 1 to 100 |  | 
42 | O=C(N[C@H]1CCN(Cc2ccccc2)C1)c1ccc(Nc2ncc(-c3cn[nH]c3)n3ncnc23)cc1 [Compound 191] |  | > 1000 |  | 
43 | C[C@@H]1C[C@H]2[C@@H]3CCC4=CC(=O)C=C[C@]4(C)[C@@]3(F)[C@@H](O)C[C@]2(C)[C@@]1(O)C(=O)CO [dexamethasone, reference compound] |  |  |  | ~1
